Reference: publication PMC11141866, “Pyrimidine depletion enhances targeted and immune therapy combinations in acute myeloid leukemia” (JCI Insight, 2024)
pIC50: −log10 of the molar value. Where “and” joins values, the source holds several entries; their conditions need not be identical. Identical values can stand only once. Like-named read-outs stand apart in the source and are kept apart here.

How the values were obtained:
CYP 3A4 = CYP 3A4 (Homo sapiens, UniProt P08684); test: CYP inhibition 3A4; assay type: in vitro ADME
Text: (§1) Supplement jciinsight-9-173646-s083.xlsx, sheet "Supplemental Table S.2." | column: HOSU-53

[1] = test system: MOLM-13 disseminated CDX AML model; test: MOLM-13 CDX efficacy study correlated with PK/PD (survival); assay type: in vivo
Procedure: Male 8- to 12-week-old NCG mice were engrafted with 1 × 10^5 cells via tail vein i.v. injection. Four days after engraftment (day 1 of treatment), mice (n = 9–10/arm) were randomized to receive p.o. qd vehicle (40% HPβCD) or p.o. qd HOSU-53 at 4, 10, and 20 mg/kg or 30 mg/kg biwk till moribundity or end of study, day 73. An additional study was done for PK/PD correlation with the survival study where 9 mice per group were randomized to receive p.o. qd vehicle (40% HPβCD) or p.o. qd HOSU-53 at 4, 10, and 20 mg/kg or 30 mg/kg biwk till day 14. Mice were bled for plasma collection to analyze HOSU-53 and DHO concentrations 1 day after the first dose and on day 14 for cumulative plasma concentration analysis. Figure 3B and Figure 4, A and B, share the same vehicle group.

HSA = HSA (Homo sapiens, UniProt P02768); test: Protein binding, HSA; assay type: in vitro ADME; settings: 4% HSA
Text: as §1

[2] = test system: plasma dihydroorotate (DHO); test: Single-dose PD: plasma DHO accumulation in mice; assay type: in vivo, male C57BL/6 mice; settings: HOSU-53 10 mpk PO, per mouse
Procedure: In the i.v. cohort, serial blood samples were collected in tubes containing K2EDTA at 0.083, 0.25, 0.5, 1, 2, 6, 24, 48, and 72 hours postdose while in the oral gavage cohort, serial blood samples were collected at 0.25, 0.5, 1, 2, 4, 8, 24, 48, and 72 hours postdose. Blood samples were processed to plasma to analyze for HOSU-53 and L-dihydroorotic acid (DHO) concentrations using liquid chromatography-tandem mass spectrometry. page 6: Plasma samples were obtained following appropriate dosing administration and saved in the -80°C freezer till the time of analysis. Analyses by LC-MS/MS followed sample extraction by protein precipitation and separation by Ultra Performance Liquid Chromatography (UPLC, Waters Corporation, MA, USA) using a C18 column, 1.7um, 2.1x50mm, Mobile Phase A: 5:95:0.1 (v:v:v) Acetonitrile:Water:Formic Acid, Mobile Phase B: 50:50:0.1 (v:v:v) Methanol:Acetonitrile:Formic Acid. MS/MS analyses were performed on an API-6500 (Absciex MA, USA) in positive mode using an electrospray source at 550°C. The internal standard was d4-AEA monitored at 352.2 and 66.0 m/z transitions and the target analyte, HOSU-53, was monitored at 416.5 and 331.1 m/z transitions. The assay was qualified between 10-5,000 ng/ml HOSU53 to be within ±20% for QCs above the LLOQ in this range and ±25% at the LLOQ. DHO concentration quantification in mouse plasma samples. Plasma samples were obtained following appropriate dosing administration and saved in the -80°C freezer till the time of analysis. Analyses by LC-MS/MS followed sample extraction by protein precipitation and separation by Ultra Performance Liquid Chromatography (UPLC, Waters Corporation, MA, USA) using a Phenomenex Aqua C18 100x4.6mm, 3uM, […], Mobile Phase A: 100:0.1 (v:v) Water:Formic Acid, Mobile Phase B: 100:0.1 (v:v) Methanol:Formic Acid. MS/MS analyses were performed on an API-4000 (Absciex MA, USA) in negative mode using an electrospray source at 550°C. The internal standard was labeled 13C14_L-Dihydroorotic Acid monitored at 161.3 and 117.1 m/z transitions and the target analyte, L-Dihydroorotic Acid (DHO), was monitored at 157.0 and 70.0 m/z transitions. The assay was qualified between 10.0-30,000 ng/ml DHO to be within ±20% for QCs above the LLOQ in this range and ±25% at the LLOQ.

[3] = test system: HL-60 disseminated CDX model; test: HL-60 CDX synergy with decitabine; assay type: in vivo, NCG mice; settings: Decitabine 0.4 mpk IP (4on/10off), HOSU53 10 mpk p.o. qd, or both; flag 0 = censored at day 82
Procedure: Female 8- to 12-week-old female NCG mice were engrafted with 1 × 10^7 cells via tail vein i.v. injection. At 14 days after engraftment (day 1 of treatment), mice (n = 10/arm) were randomized to receive p.o. qd and i.p. vehicle (p.o. qd 40% HPβCD and 4 on/10 off i.p. PBS), 10 mg/kg HOSU-53, i.p. 0.4 mg/kg decitabine on a 4-day on/10-day off cycle, or their combination till moribundity or end of study day 82.

primary AML samples = test: Flow cytometry CD38 surface expression, primary AML samples; assay type: cell-based, human; settings: for CD38 MFI: 50nM
Procedure: Cells were thawed in 50% FBS RPMI and then cultured in StemSpan (StemCell Technologies) media supplemented with human FLT3L, SCF, GM-CSF, G-CSF, IL-3, IL-6, TPO, and EPO cytokines for 7 days (LTC).
After 72 hours or 7 days of treatment of DHODHi, cells were collected and washed with PBS, blocked with human Fc block (BioLegend), and stained with antibodies for 30 minutes on ice. Antibodies were washed off and cells resuspended in FACS buffer (2% FBS, 2 mM NaN3, Dulbecco’s PBS) for analysis using BD LSRFortessa or Cytek Aurora spectral flow cytometer. Live/dead exclusion was done using LIVE/DEAD Fixable Near-IR (Invitrogen). All antibodies were purchased from BioLegend except CD47, which was purchased from BD Biosciences: CD11b clone M1/70, CD38 clone HIT2, CD14 clone M5E2, CD47 clone B6H12, CD33 clone WM53, CD3 clone UCHT1, CD19 clone HIB19, and CD45 clone HI30.

Chain of CYP 3A4 (P08684 whole entry): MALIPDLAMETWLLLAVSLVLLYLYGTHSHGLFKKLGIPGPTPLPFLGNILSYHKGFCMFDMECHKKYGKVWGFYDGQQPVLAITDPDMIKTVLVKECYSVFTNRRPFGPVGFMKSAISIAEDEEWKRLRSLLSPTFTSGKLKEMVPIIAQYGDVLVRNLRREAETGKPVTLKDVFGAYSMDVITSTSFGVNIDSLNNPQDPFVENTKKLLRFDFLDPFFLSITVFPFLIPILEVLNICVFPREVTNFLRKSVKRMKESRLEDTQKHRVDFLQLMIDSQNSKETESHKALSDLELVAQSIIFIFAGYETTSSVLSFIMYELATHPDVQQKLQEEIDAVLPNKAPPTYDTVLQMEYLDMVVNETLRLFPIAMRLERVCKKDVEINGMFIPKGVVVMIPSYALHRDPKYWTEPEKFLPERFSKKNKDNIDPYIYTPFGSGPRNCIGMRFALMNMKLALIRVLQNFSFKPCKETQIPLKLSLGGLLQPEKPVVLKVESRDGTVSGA
Chain of HSA (P02768 25-609): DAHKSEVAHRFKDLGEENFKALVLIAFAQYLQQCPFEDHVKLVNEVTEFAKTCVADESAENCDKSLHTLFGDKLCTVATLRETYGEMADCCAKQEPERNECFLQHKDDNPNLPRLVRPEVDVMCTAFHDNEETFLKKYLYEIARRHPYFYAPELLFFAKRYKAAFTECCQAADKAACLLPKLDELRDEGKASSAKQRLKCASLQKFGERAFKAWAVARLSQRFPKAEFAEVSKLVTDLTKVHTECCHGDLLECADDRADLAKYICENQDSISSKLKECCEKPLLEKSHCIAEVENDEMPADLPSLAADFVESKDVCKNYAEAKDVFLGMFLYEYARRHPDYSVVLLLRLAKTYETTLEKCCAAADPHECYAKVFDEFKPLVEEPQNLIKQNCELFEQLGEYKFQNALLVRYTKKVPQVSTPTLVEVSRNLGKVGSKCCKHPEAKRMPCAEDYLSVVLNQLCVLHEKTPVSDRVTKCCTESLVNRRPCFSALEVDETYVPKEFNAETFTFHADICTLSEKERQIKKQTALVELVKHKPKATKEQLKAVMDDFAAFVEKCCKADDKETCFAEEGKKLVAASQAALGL

In the case of `CCCCOc1cccc(-c2ccc(-c3cc(C(=O)O)c4cc(F)ccc4n3)cc2)c1` [HOSU-53], the pIC50 (CYP 3A4; substrate midazolam, read-out: CYP inhibition IC50 3A4 (Midazolam)) was 4.37, the pIC50 (CYP 3A4; substrate testosterone, read-out: CYP inhibition IC50 3A4 (testosterone)) was 4.65 and the median survival ([1]; 10 mg/kg daily p.o.) was 55 days. For the same compound, the tolerability ([1]; 20 mg/kg daily p.o.) was “intolerable in approximately half the mice”, the median survival ([1]; 30 mg/kg twice weekly p.o.) was 48 days and the tolerability ([1]; 30 mg/kg twice weekly p.o.) was “well tolerated”. The “Survival, day of study at event (per animal)” value (“Survival, day … (per animal)” below) ([1]; 4 mpk poqd) was 44 days and 46 days and 43 days and 45 days and 36 days, the “Survival, day … (per animal)” value ([1]; 10mpk poqd) was 55 days and 52 days and 47 days and 60 days and 59 days and 49 days and 63 days and 58 days and the “Survival, day … (per animal)” value ([1]; 20mpk poqd, flag 0 = censored) was ≥ 73 days and 69 days and 46 days and 41 days and 40 days and 71 days and 11 days and 31 days. The “Survival, day … (per animal)” value ([1]; 30mpk biwk) was 50 days and 43 days and 42 days and 48 days and 46 days and 52 days and 44 days and 49 days, the fraction unbound (HSA) was under 0.01 and the DHO plasma concentration ([2]; 0.5 h postdose) was 0.2422 µM. For the same compound, the DHO plasma concentration ([2]; 1 h postdose, 10 mg/kg) was 0.6072 µM and 0.4288 µM and 0.8412 µM, the DHO plasma concentration ([2]; 2 h postdose, 10 mg/kg) was 2.068 µM and 1.512 µM and 1.613 µM and the DHO plasma concentration ([2]; 4 h postdose, 10 mg/kg) was 2.783 µM and 2.701 µM and 3.7758 µM. For the same compound, the DHO plasma concentration ([2]; 8 h postdose, 10 mg/kg) was 6.325 µM and 4.807 µM and 6.894 µM, the DHO plasma concentration ([2]; 24 h postdose, 10 mg/kg) was 9.613 µM and 11.9535 µM and 9.74 µM and the DHO plasma concentration ([2]; 48 h postdose, 10 mg/kg) was 4.364 µM and 4.453 µM and 2.467 µM. The DHO plasma concentration ([2]; 72 h postdose, 10 mg/kg) was 1.189 µM and 0.9613 µM and 1.132 µM, the “Survival, day … (per animal)” value [3] was 57 days and 52 days and 56 days and 58 days and 55 days and the “CD38 MFI” value (primary AML samples; Pt.12, DMSO 824.62) was 1062.2. The “CD38 MFI” value (primary AML samples; Pt.13, DMSO 803.93) was 707.33, the “CD38 MFI” value (primary AML samples; Pt.14, DMSO 15.61) was 21.18 and the “CD38 MFI” value (primary AML samples; Pt.15, DMSO 168) was 782.96. The “CD38 MFI” value (primary AML samples; Pt.16, DMSO 274.9) was 277.67, the “CD38 MFI” value (primary AML samples; Pt.17, DMSO 1637.55) was 2440.33 and the “CD38 MFI” value (primary AML samples; Pt.18, DMSO 74.26) was 85.51. The “CD38 MFI” value (primary AML samples; Pt.19, DMSO 997.1) was 2400.6, the “CD38 MFI” value (primary AML samples; Pt.20, DMSO 193.57) was 291.28 and the “CD38 MFI” value (primary AML samples; Pt.2, DMSO 150.75) was 197. The CD38 surface expression (primary AML samples; primary AML samples treated in vitro) was “variable increase”.
